Results on 21 molecules are retold here after patent US20130102595A1 (Curis, Inc., priority 2011, published 2013).

Data set [1] deals with HDACs (HeLa cell nuclear extracts). As to the kind of experiment: HDAC enzymatic activity, Biomol Color de Lys system. It counts as biochemical. The conditions noted are these: 1 hour, 25° C. A digest of the protocol:
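IC50 from sigmoidal fit of developer-terminated fluorescence (ex 350-380/em 440-460 nm). Reaction: 1 h at room temperature (25 °C), HeLa nuclear extract as HDAC source, artificial substrate, buffer of 50 mM Tris/Cl pH 8.0 with 137 mM NaCl, 2.7 mM KCl and 1 mM MgCl2.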

A further data set deals with T1, PI3Kα (p110α/p85α) (Homo sapiens, UniProt P42336).
T1 construct: GST (N); made in house; host or cells: Baculovirus-infected Sf9 cells
As to the kind of experiment: PI3Kα ADP-Glo assay. Format: biochemical. The settings on record: 20 μM PIP2, 10 μM ATP, 30 minutes. A digest of the protocol:
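Luminescent ADP-Glo detection, after depletion of residual ATP, quantified ADP made by PI3Kα phosphorylating 20 μM PIP2 at 10 μM ATP. The kinase step ran 30 min at room temperature in HEPES pH 7.4 with MgCl2, DTT and orthovanadate, using baculovirus/Sf9-expressed full-length p110α/p85α complex.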
For orientation: In ADP-Glo the light output rises with the ADP produced.

T1 sequence (P42336 whole entry): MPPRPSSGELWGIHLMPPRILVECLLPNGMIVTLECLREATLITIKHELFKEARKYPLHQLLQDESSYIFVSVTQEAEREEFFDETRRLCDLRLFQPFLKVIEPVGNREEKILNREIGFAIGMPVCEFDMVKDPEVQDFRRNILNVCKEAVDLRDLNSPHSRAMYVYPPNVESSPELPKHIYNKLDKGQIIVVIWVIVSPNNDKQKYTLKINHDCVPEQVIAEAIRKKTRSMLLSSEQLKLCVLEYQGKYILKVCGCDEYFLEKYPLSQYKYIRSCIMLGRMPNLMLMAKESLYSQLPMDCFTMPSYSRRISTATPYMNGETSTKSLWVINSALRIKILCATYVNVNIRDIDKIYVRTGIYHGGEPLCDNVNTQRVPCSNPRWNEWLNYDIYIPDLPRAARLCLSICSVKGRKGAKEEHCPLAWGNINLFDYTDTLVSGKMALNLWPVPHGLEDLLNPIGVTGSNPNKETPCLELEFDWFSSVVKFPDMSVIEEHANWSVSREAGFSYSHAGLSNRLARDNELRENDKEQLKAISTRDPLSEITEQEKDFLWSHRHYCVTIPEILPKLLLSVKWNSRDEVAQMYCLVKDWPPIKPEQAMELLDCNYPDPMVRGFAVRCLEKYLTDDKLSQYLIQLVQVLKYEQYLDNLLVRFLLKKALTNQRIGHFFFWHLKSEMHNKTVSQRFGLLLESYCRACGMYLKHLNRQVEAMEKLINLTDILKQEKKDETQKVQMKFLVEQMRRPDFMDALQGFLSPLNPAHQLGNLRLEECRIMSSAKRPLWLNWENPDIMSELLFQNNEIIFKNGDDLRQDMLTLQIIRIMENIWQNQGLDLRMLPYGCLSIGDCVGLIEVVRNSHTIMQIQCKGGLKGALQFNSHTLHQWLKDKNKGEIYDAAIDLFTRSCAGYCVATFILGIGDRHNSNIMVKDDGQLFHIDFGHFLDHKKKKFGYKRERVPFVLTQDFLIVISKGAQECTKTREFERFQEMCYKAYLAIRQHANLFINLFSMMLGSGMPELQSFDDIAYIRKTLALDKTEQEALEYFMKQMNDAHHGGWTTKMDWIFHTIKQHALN
T1 sequence (P27986 whole entry partner): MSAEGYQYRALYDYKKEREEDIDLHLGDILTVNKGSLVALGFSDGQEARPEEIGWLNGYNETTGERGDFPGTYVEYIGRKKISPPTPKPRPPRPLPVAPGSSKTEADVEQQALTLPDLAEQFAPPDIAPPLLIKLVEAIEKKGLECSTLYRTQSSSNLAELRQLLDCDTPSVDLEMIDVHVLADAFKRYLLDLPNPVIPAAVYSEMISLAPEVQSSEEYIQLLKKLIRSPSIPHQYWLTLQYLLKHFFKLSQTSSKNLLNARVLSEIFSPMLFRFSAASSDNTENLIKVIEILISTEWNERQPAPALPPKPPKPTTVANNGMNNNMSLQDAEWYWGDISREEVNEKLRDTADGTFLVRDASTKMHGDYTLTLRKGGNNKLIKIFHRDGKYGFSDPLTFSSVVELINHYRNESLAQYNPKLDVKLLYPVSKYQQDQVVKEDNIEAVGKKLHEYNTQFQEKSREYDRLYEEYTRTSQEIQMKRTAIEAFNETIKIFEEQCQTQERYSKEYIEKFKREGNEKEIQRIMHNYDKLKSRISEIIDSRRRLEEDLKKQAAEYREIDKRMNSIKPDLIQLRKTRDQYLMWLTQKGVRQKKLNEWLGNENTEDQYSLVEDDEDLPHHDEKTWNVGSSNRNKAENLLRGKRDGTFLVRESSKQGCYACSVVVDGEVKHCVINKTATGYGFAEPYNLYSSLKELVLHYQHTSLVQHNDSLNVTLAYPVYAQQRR

As for `CC(C)c1ccc(-c2nc(N3CCOCC3)c3sc(CN(C)c4ncc(C(=O)NO)cn4)cc3n2)cc1` [Compound 148, N-hydroxy-2-(((2-(4-isopropylphenyl)-4-morpholinothieno[3,2-d]pyrimidin-6-yl)methyl)(methyl)amino)pyrimidine-5-carboxamide], the melting point – broadly, the temperature of the solid-liquid transition – is 155 °C (dec.). For the same molecule, in data set [1], the IC50 (in general, the concentration at which inhibition is half-maximal) is under 100 nM. On PI3Kα (p110α/p85α), this molecule returned an IC50 of over 10000 nM.

`CN(Cc1cc2nc(-c3cccc(SCCO)c3)nc(N3CCOCC3)c2s1)c1ncc(C(=O)NO)cn1` [Compound 290, N-Hydroxy-2-(((2-(3-(2-hydroxyethylthio)phenyl)-4-morpholinothieno[3,2-d]pyrimidin-6-yl)methyl)(methyl)amino)pyrimidine-5-carboxamide] had a melting point of 188 to 192 °C. Further, the IC50 in data set [1] is under 100 nM. The same molecule displayed an IC50 against PI3Kα (p110α/p85α) of 100 to 1000 nM.

Consider `CN(Cc1cc2nc(-c3ccc(N)c([N+](=O)[O-])c3)nc(N3CCOCC3)c2s1)c1ncc(C(=O)NO)cn1` [Compound 278, 2-(((2-(4-Amino-3-nitrophenyl)-4-morpholinothieno[3,2-d]pyrimidin-6-yl)methyl)(methyl)amino)-N-hydroxypyrimidine-5-carboxamide], for which the melting point is 202 to 206 °C. In data set [1], this molecule registered an IC50 of under 100 nM. Besides, the IC50 on PI3Kα (p110α/p85α) is under 100 nM.

`O=C(CCCCNCc1cc2nc(-c3cccc4[nH]ncc34)nc(N3CCOCC3)c2s1)NO` [Compound 42, 5-((2-(1H-indazol-4-yl)-4-morpholinothieno[3,2-d]pyrimidin-6-yl)methylamino)-N-hydroxypentanamide] returned a melting point of 145 to 147 °C. In addition, in data set [1], the IC50 was under 100 nM. For the same molecule, the IC50 against PI3Kα (p110α/p85α) lay within 1000 to 10000 nM.

`Nc1ccc(-c2nc(N3CCOCC3)c3sc(S(=O)(=O)Nc4ncc(C(=O)NO)cn4)cc3n2)cc1` [Compound 271, 2-[2-(4-Amino-phenyl)-4-morpholin-4-yl-thieno[3,2-d]pyrimidine-6-sulfonylamino]-pyrimidine-5-carboxylic acid hydroxyamide] came in with a melting point of 197 to 205 °C. Moreover, the IC50 in data set [1] was under 100 nM. The molecule further displayed an IC50 at PI3Kα (p110α/p85α) of under 100 nM.

In the case of `CN(Cc1cc2nc(-c3cccc4[nH]ccc34)nc(N3CCOCC3)c2s1)c1ncc(C(=O)NO)cn1` [Compound 176, 2-(((2-(1H-indol-4-yl)-4-morpholinothieno[3,2-d]pyrimidin-6-yl)methyl)(methyl)amino)-N-hydroxypyrimidine-5-carboxamide], the melting point was 200 to 212 °C. Besides, the IC50 in data set [1] is under 100 nM. The molecule also yielded an IC50 at PI3Kα (p110α/p85α) of 100 to 1000 nM.

In turn, `COCc1cccc(-c2nc(N3CCOCC3)c3sc(CN(C)c4ncc(C(=O)NO)cn4)cc3n2)c1` [Compound 139, N-hydroxy-2-(((2-(3-(methoxymethyl)phenyl)-4-morpholinothieno[3,2-d]pyrimidin-6-yl)methyl)(methyl)amino)pyrimidine-5-carboxamide] gave a melting point of 178 to 181 °C. In addition, in data set [1], the IC50 was under 100 nM. Also, the IC50 against PI3Kα (p110α/p85α) lay in the range of 100 to 1000 nM.

Regarding `O=C(CCCCCCN1CCN(Cc2cc3nc(-c4cccc5[nH]ncc45)nc(N4CCOCC4)c3s2)CC1)NO` [Compound 13, 7-(4-((2-(1H-indazol-4-yl)-4-morpholinothieno[3,2-d]pyrimidin-6-yl)methyl)piperazin-1-yl)-N-hydroxyheptanamide], the melting point was 119 to 122 °C. In addition, in data set [1], the IC50 was in the range of 100 to 1000 nM. At PI3Kα (p110α/p85α), this molecule had an IC50 of 100 to 1000 nM.

Regarding `CNc1ccc(-c2nc(N3CCOCC3)c3sc(C(C)N(C)c4ncc(C(=O)NO)cn4)cc3n2)cn1` (stereo not drawn) [Compound 237, N-Hydroxy-2-(methyl(1-(2-(6-(methylamino)pyridin-3-yl)-4-morpholinothieno[3,2-d]pyrimidin-6-yl)ethyl)amino)pyrimidine-5-carboxamide], the melting point was 270 to 275 °C. The molecule further came in with an IC50 in data set [1] of under 100 nM. On PI3Kα (p110α/p85α), this molecule came in with an IC50 of under 100 nM.

`COc1ccc(-c2nc(N3CCOCC3)c3sc(C(C)(C)N(C)c4ncc(C(=O)NO)cn4)cc3n2)cn1` [Compound 251, N-Hydroxy-2-((2-(2-(6-methoxypyridin-3-yl)-4-morpholinothieno[3,2-d]pyrimidin-6-yl)propan-2-yl)(methyl)amino)pyrimidine-5-carboxamide] had a melting point of 175 to 178 °C. This molecule gave an IC50 in data set [1] of under 100 nM. This molecule gave a half-maximal inhibitory concentration (IC50) against PI3Kα (p110α/p85α) of 1000 to 10000 nM.

Regarding `CS(=O)(=O)N1CCN(Cc2cc3nc(-c4ccc(OCCCCCC(=O)NO)cc4)nc(N4CCOCC4)c3s2)CC1` [Compound 320, N-Hydroxy-6-(4-(6-((4-(methylsulfonyl)piperazin-1-yl)methyl)-4-morpholinothieno[3,2-d]pyrimidin-2-yl)phenoxy)hexanamide], the melting point lay in the range of 140 to 142 °C. In data set [1], this molecule displayed an IC50 of 100 to 1000 nM. Further, the IC50 against PI3Kα (p110α/p85α) is 100 to 1000 nM.

Regarding `CN(Cc1cc2nc(-c3ccc(N)c(F)c3)nc(N3CCOCC3)c2s1)c1ncc(C(=O)NO)cn1` [Compound 276, 2-(((2-(4-Amino-3-fluorophenyl)-4-morpholinothieno[3,2-d]pyrimidin-6-yl)methyl)(methyl)amino)-N-hydroxypyrimidine-5-carboxamide], the melting point was in the range of 203 to 206 °C. Moreover, the IC50 in data set [1] is under 100 nM. For the same molecule, the IC50 on PI3Kα (p110α/p85α) is under 100 nM.

Regarding `CS(=O)(=O)N1CCN(Cc2cc3nc(-c4cccc5nn(CCCCCCC(=O)NO)cc45)nc(N4CCOCC4)c3s2)CC1` [Compound 9, N-hydroxy-7-(4-(6-((4-(methylsulfonyl)piperazin-1-yl)methyl)-4-morpholinothieno[3,2-d]pyrimidin-2-yl)-2H-indazol-2-yl)heptanamide], the melting point is 123 to 126 °C. In addition, the IC50 in data set [1] was under 100 nM. Moreover, the IC50 against PI3Kα (p110α/p85α) is over 10000 nM.

Molecule `O=C(NO)c1ccc(NCc2cc3nc(-c4cccc5[nH]ncc45)nc(N4CCOCC4)c3s2)nc1` [Compound 76, 6-((2-(1H-indazol-4-yl)-4-morpholinothieno[3,2-d]pyrimidin-6-yl)methylamino)-N-hydroxynicotinamide] gave a melting point of 218 to 220 °C. This molecule also had an IC50 in data set [1] of under 100 nM. Moreover, the IC50 at PI3Kα (p110α/p85α) was under 100 nM.

Molecule `COc1ccc(-c2nc(N3CCOCC3)c3sc(S(=O)(=O)Nc4ncc(C(=O)NO)cn4)cc3n2)cn1` [Compound 252, 2-[2-(6-Methoxy-pyridin-3-yl)-4-morpholin-4-yl-thieno[3,2-d]pyrimidine-6-sulfonylamino]-pyrimidine-5-carboxylic acid hydroxyamide] came in with a melting point of 259 to 265 °C. In data set [1], this molecule gave an IC50 of under 100 nM. At PI3Kα (p110α/p85α), this molecule yielded an IC50 of under 100 nM.

`CN(Cc1cc2nc(-c3ccccc3CO)nc(N3CCOCC3)c2s1)c1ncc(C(=O)NO)cn1` [Compound 141, N-hydroxy-2-(((2-(2-(hydroxymethyl)phenyl)-4-morpholinothieno[3,2-d]pyrimidin-6-yl)methyl)(methyl)amino)pyrimidine-5-carboxamide] gave a melting point of 173 to 176 °C. The molecule further returned an IC50 in data set [1] of under 100 nM. The molecule further had an IC50 at PI3Kα (p110α/p85α) of 100 to 1000 nM.

As to `CN(Cc1cc2nc(-c3ccc4c(c3)CC(=O)N4)nc(N3CCOCC3)c2s1)c1ncc(C(=O)NO)cn1` [Compound 194, N-hydroxy-2-(methyl((4-morpholino-2-(2-oxoindolin-5-yl)thieno[3,2-d]pyrimidin-6-yl)methyl)amino)pyrimidine-5-carboxamide], the melting point is 270 °C (dec.). This molecule also yielded an IC50 in data set [1] of under 100 nM. This molecule also had an IC50 against PI3Kα (p110α/p85α) of over 10000 nM.

Take `CN(Cc1cc2nc(-c3cccc4[nH]ncc34)nc(Nc3ccccc3)c2s1)c1ncc(C(=O)NO)cn1` [Compound 164, 2-(((2-(1H-indazol-4-yl)-4-(phenylamino)thieno[3,2-d]pyrimidin-6-yl)methyl)(methyl)amino)-N-hydroxypyrimidine-5-carboxamide]: the melting point lay in the range of 232 to 235 °C. Besides, in data set [1], the IC50 is under 100 nM. Also, the IC50 on PI3Kα (p110α/p85α) was under 100 nM.

As for `CS(=O)(=O)N1CCN(Cc2cc3nc(-c4cccc5nn(CCCCC(=O)NO)cc45)nc(N4CCOCC4)c3s2)CC1` [Compound 7, N-hydroxy-5-(4-(6-((4-(methylsulfonyl)piperazin-1-yl)methyl)-4-morpholinothieno[3,2-d]pyrimidin-2-yl)-2H-indazol-2-yl)pentanamide], the melting point lay in the range of 146 to 169 °C. In data set [1], the IC50 is 100 to 1000 nM. The same molecule had an IC50 at PI3Kα (p110α/p85α) of 100 to 1000 nM.

Consider `CN(Cc1cc2nc(-c3ccc(N)c(O)c3)nc(N3CCOCC3)c2s1)c1ncc(C(=O)NO)cn1` [Compound 279, 2-(((2-(4-Amino-3-hydroxyphenyl)-4-morpholinothieno[3,2-d]pyrimidin-6-yl)methyl)(methyl)amino)-N-hydroxypyrimidine-5-carboxamide], for which the melting point lay in the range of 214 to 218 °C. The same molecule had an IC50 in data set [1] of under 100 nM. Further, the IC50 on PI3Kα (p110α/p85α) is under 100 nM.

Molecule `CN(Cc1cc2nc(-c3ccc(CO)cc3)nc(N3CCOCC3)c2s1)c1ncc(C(=O)NO)cn1` [Compound 140, N-hydroxy-2-(((2-(4-(hydroxymethyl)phenyl)-4-morpholinothieno[3,2-d]pyrimidin-6-yl)methyl)(methyl)amino)pyrimidine-5-carboxamide] yielded a melting point of 218 to 223 °C. For the same molecule, the IC50 in data set [1] is under 100 nM. This molecule also came in with an IC50 on PI3Kα (p110α/p85α) of 100 to 1000 nM.
